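Cultured in 96-well plates, cells were exposed to test compound for 48 hours across five concentrations. GI50 is the concentration that inhibits growth by half.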 Calls of active or inactive are those of the source. Rule as the data show it: active = GI50 up to about 1.1 µM and inactive = higher.
Assays:
Assay in all cases: inhibition of tumour cell growth, NCI panel, 48 h
[1] = system: HCC 2998
[2] = system: UO-31
[3] = system: TK-10
[4] = system: HT-29
[5] = system: T47D
[6] = system: OVCAR-4
[7] = system: HOP-62
[8] = system: DU-145
[9] = system: SW-620
[10] = system: A549
[11] = system: SNB-75
[12] = system: NCI-H522
[13] = system: LOX IMVI
[14] = system: UACC-257
[15] = system: NCI-H23
[16] = system: KM12
[17] = system: SF-268
[18] = system: OVCAR-8
[19] = system: MDA-N
[20] = system: SK-MEL-2
[21] = system: SN12C
[22] = system: ACHN
[23] = system: NCI-H226
[24] = system: NCI/ADR-RES
[25] = system: MOLT-4
[26] = system: Malme-3M
[27] = system: EKVX
[28] = system: CAKI-1
[29] = system: MCF7
[30] = system: Hs-578T
[31] = system: HCT-116
[32] = system: SR
[33] = system: HOP-92
[34] = system: IGROV-1
[35] = system: PC-3
[36] = system: SF-539
[37] = system: SK-MEL-28
[38] = system: MDA-MB-231
[39] = system: U-251
[40] = system: M14
[41] = system: SK-OV-3
[42] = system: HL-60
[43] = system: HCT-15
[44] = system: MDA-MB-435
[45] = system: 786-0
[46] = system: UACC-62
[47] = system: SNB-19
[48] = system: COLO 205
[49] = system: SF-295
[50] = system: CCRF-CEM
[51] = system: RXF 393
[52] = system: OVCAR-3
[53] = system: BT-549
[54] = system: NCI-H460
[55] = system: K562
[56] = system: A498
[57] = system: OVCAR-5
[58] = system: SK-MEL-5
[59] = system: RPMI-8226

SMILES: C=C1CC[C@H](O)C(C)(C)[C@@H]1CC/C(C)=C/CC/C=C(\C)CC/C=C(\C)CCC=C(C)C
- GI50 [1]: 76.6 µM (inactive)
- GI50 [2]: > 100 µM (inactive)
- GI50 [3]: > 100 µM (inactive)
- GI50 [4]: > 100 µM (inactive)
- GI50 [5]: 18.7 µM (inactive)
- GI50 [6]: > 100 µM (inactive)
- GI50 [7]: > 100 µM (inactive)
- GI50 [8]: > 100 µM (inactive)
- GI50 [9]: > 100 µM (inactive)
- GI50 [10]: > 100 µM (inactive)
- GI50 [11]: > 100 µM (inactive)
- GI50 [12]: 29 µM (inactive)
- GI50 [13]: > 100 µM (inactive)
- GI50 [14]: > 100 µM (inactive)
- GI50 [15]: 45.7 µM (inactive)
- GI50 [16]: > 100 µM (inactive)
- GI50 [17]: > 100 µM (inactive)
- GI50 [18]: 57.8 µM (inactive)
- GI50 [19]: > 100 µM (inactive)
- GI50 [20]: 46.7 µM (inactive)
- GI50 [21]: 66.2 µM (inactive)
- GI50 [22]: > 100 µM (inactive)
- GI50 [23]: 69.2 µM (inactive)
- GI50 [24]: > 100 µM (inactive)
- GI50 [25]: > 100 µM (inactive)
- GI50 [26]: > 100 µM (inactive)
- GI50 [27]: 97.9 µM (inactive)
- GI50 [28]: > 100 µM (inactive)
- GI50 [29]: 27.6 µM (inactive)
- GI50 [30]: > 100 µM (inactive)
- GI50 [31]: 43.7 µM (inactive)
- GI50 [32]: 59.6 µM (inactive)
- GI50 [33]: > 100 µM (inactive)
- GI50 [34]: > 100 µM (inactive)
- GI50 [35]: > 100 µM (inactive)
- GI50 [36]: > 100 µM (inactive)
- GI50 [37]: > 100 µM (inactive)
- GI50 [38]: > 100 µM (inactive)
- GI50 [39]: > 100 µM (inactive)
- GI50 [40]: > 100 µM (inactive)
- GI50 [41]: > 100 µM (inactive)
- GI50 [42]: 13.5 µM (inactive)
- GI50 [43]: 87.3 µM
- GI50 [44]: > 100 µM (inactive)
- GI50 [45]: > 100 µM (inactive)
- GI50 [46]: > 100 µM (inactive)
- GI50 [47]: > 100 µM (inactive)
- GI50 [48]: > 100 µM (inactive)
- GI50 [49]: > 100 µM (inactive)
- GI50 [50]: 1.82 µM (inactive)
- GI50 [51]: 13.7 µM (inactive)
- GI50 [52]: > 100 µM (inactive)
- GI50 [53]: > 100 µM (inactive)
- GI50 [54]: > 100 µM (inactive)
- GI50 [55]: > 100 µM (inactive)
- GI50 [56]: > 100 µM (inactive)
- GI50 [57]: > 100 µM (inactive)
- GI50 [58]: 54 µM (inactive)

SMILES: COc1ccc(/C=N/N2C(=O)c3c(N)c(C#N)c(-c4ccccc4)c(-c4ccccc4)c3C2=O)cc1
- GI50 [1]: > 100 µM (inactive)
- GI50 [59]: > 100 µM (inactive)
- GI50 [2]: > 100 µM (inactive)
- GI50 [3]: 42.4 µM (inactive)
- GI50 [5]: > 100 µM (inactive)
- GI50 [6]: 99.8 µM (inactive)
- GI50 [8]: > 100 µM (inactive)
- GI50 [9]: > 100 µM (inactive)
- GI50 [10]: > 100 µM (inactive)
- GI50 [11]: 88.7 µM (inactive)
- GI50 [12]: > 100 µM (inactive)
- GI50 [13]: > 100 µM (inactive)
- GI50 [14]: > 100 µM (inactive)
- GI50 [16]: > 100 µM (inactive)
- GI50 [17]: > 100 µM (inactive)
- GI50 [18]: 82.4 µM (inactive)
- GI50 [19]: > 100 µM (inactive)
- GI50 [20]: > 100 µM (inactive)
- GI50 [21]: > 100 µM (inactive)
- GI50 [22]: 44.7 µM (inactive)
- GI50 [23]: > 100 µM (inactive)
- GI50 [24]: > 100 µM (inactive)
- GI50 [25]: > 100 µM (inactive)
- GI50 [26]: > 100 µM (inactive)
- GI50 [27]: > 100 µM (inactive)
- GI50 [28]: > 100 µM (inactive)
- GI50 [29]: > 100 µM (inactive)
- GI50 [30]: > 100 µM (inactive)
- GI50 [31]: 3.65 µM (inactive)
- GI50 [32]: > 100 µM (inactive)
- GI50 [33]: 84.3 µM (inactive)
- GI50 [34]: > 100 µM (inactive)
- GI50 [35]: > 100 µM (inactive)
- GI50 [36]: > 100 µM (inactive)
- GI50 [37]: > 100 µM (inactive)
- GI50 [38]: > 100 µM (inactive)
- GI50 [39]: 98.6 µM (inactive)
- GI50 [40]: > 100 µM (inactive)
- GI50 [42]: > 100 µM (inactive)
- GI50 [43]: > 100 µM
- GI50 [44]: > 100 µM (inactive)
- GI50 [45]: 64.6 µM (inactive)
- GI50 [46]: > 100 µM (inactive)
- GI50 [47]: 76.9 µM (inactive)
- GI50 [48]: > 100 µM (inactive)
- GI50 [49]: 70.8 µM (inactive)
- GI50 [50]: > 100 µM (inactive)
- GI50 [51]: 72.8 µM (inactive)
- GI50 [52]: > 100 µM (inactive)
- GI50 [53]: > 100 µM (inactive)
- GI50 [54]: > 100 µM (inactive)
- GI50 [55]: > 100 µM (inactive)
- GI50 [56]: > 100 µM (inactive)
- GI50 [57]: > 100 µM (inactive)
- GI50 [58]: > 100 µM (inactive)

SMILES: CC12CC3OC(=O)C1COC14OC5(C2C1=O)C(O)(CCC1C4CC2OC24CC=CC(=O)C14C)C(=O)OC35C (stereo unspecified)
- GI50 [1]: 18.7 µM (inactive)
- GI50 [59]: 19.2 µM (inactive)
- GI50 [2]: 16.9 µM (inactive)
- GI50 [3]: 13.6 µM (inactive)
- GI50 [4]: 28.5 µM (inactive)
- GI50 [5]: 15.7 µM (inactive)
- GI50 [6]: 66.2 µM (inactive)
- GI50 [7]: 20.9 µM (inactive)
- GI50 [8]: 14.6 µM (inactive)
- GI50 [9]: 12.4 µM (inactive)
- GI50 [10]: 27 µM (inactive)
- GI50 [11]: 76.7 µM (inactive)
- GI50 [12]: 5.6 µM (inactive)
- GI50 [13]: 11.3 µM (inactive)
- GI50 [14]: 13 µM (inactive)
- GI50 [15]: 15.4 µM (inactive)
- GI50 [16]: 17.3 µM (inactive)
- GI50 [17]: 36.7 µM (inactive)
- GI50 [18]: 43.8 µM (inactive)
- GI50 [19]: 12.4 µM (inactive)
- GI50 [20]: 14.5 µM (inactive)
- GI50 [21]: 21.5 µM (inactive)
- GI50 [22]: 16.4 µM (inactive)
- GI50 [24]: 38.1 µM (inactive)
- GI50 [25]: 15.5 µM (inactive)
- GI50 [26]: 18.5 µM (inactive)
- GI50 [27]: 32 µM (inactive)
- GI50 [28]: 13 µM (inactive)
- GI50 [29]: 8.85 µM (inactive)
- GI50 [30]: > 100 µM (inactive)
- GI50 [31]: 11.6 µM (inactive)
- GI50 [32]: 8.85 µM (inactive)
- GI50 [33]: 21.8 µM (inactive)
- GI50 [34]: 18.4 µM (inactive)
- GI50 [35]: 20.3 µM (inactive)
- GI50 [36]: 12.6 µM (inactive)
- GI50 [37]: 8.47 µM (inactive)
- GI50 [38]: 18.5 µM (inactive)
- GI50 [39]: 14.5 µM (inactive)
- GI50 [40]: 17.2 µM (inactive)
- GI50 [41]: 28.6 µM (inactive)
- GI50 [42]: 8.04 µM (inactive)
- GI50 [43]: 16.4 µM
- GI50 [44]: 13.6 µM (inactive)
- GI50 [45]: 13.2 µM (inactive)
- GI50 [46]: 13.2 µM (inactive)
- GI50 [47]: 20 µM (inactive)
- GI50 [48]: 10.3 µM (inactive)
- GI50 [49]: 24.8 µM (inactive)
- GI50 [50]: 4.1 µM (inactive)
- GI50 [51]: 3.99 µM (inactive)
- GI50 [52]: 13.9 µM (inactive)
- GI50 [53]: 2.64 µM (inactive)
- GI50 [54]: 30.4 µM (inactive)
- GI50 [55]: 12.8 µM (inactive)
- GI50 [56]: 18.8 µM (inactive)
- GI50 [57]: 18.4 µM (inactive)
- GI50 [58]: 3.88 µM (inactive)

Reference: ChEMBL document CHEMBL1201862, “PubChem BioAssay data set” (2004)
